Assay results reported in US5252749A, “Ethers of thienocyclopentanone oximes, their preparation and pharmaceutical compositions containing them” (Elf Sanofi, priority 1991, dated 1993).

Tests used:
5HT3 receptors = details: rats, Bezold-Jarisch reflex; compounds studied in J. Pharm. Pharmacol. 40, 301-302 (1988); cited from earlier work
[1] = in man; cited from earlier work
5HT1D receptor = details: Headache 29, 420-422, July 1989; cited from earlier work
5HT1D receptors = biological target: T1, 5HT1D receptors (Bos taurus, UniProt F1MGM3); assay: Displacement of tritiated serotonin from 5HT1D receptors on membrane preparations of bovine caudate nuclei; details: bovine caudate nuclei membranes, in vitro, read-out: concentration which inhibits 50% of the binding of the tritiated compound (IC50)
T1 construct: membrane preparations of bovine caudate nuclei; from tissue; host or cells: bovine caudate nuclei, membrane preparation

5HT1A receptor = details: Headache 29, 420-422, July 1989; cited from earlier work

T1 sequence (F1MGM3 1-403): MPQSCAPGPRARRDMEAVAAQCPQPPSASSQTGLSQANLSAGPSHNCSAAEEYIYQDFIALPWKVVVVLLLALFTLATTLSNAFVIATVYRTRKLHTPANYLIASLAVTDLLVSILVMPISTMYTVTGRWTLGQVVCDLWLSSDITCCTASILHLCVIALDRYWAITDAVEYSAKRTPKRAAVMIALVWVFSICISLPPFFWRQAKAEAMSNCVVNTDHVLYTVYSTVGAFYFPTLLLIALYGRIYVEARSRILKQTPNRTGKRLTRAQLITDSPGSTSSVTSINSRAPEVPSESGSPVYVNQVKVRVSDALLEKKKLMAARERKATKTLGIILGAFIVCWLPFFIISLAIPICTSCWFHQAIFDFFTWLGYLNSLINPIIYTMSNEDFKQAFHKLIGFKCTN

SMILES	dose which inhibits 50% of the serotonin activity (ID50) (5HT3 receptors)	antimigraine activity [1]	agonist activity at the 5HT1D receptor (5HT1D receptor)	IC50 (5HT1D receptors) [nM]	agonist activity at the 5HT1A receptor (5HT1A receptor)
CN1[C@@H]2CC[C@H]1CC(OC(=O)c1c[nH]c3ccccc13)C2 (stereo partly shown) [ICS 205-930]	approximately 1 μg/kg				
CCN(CC)CCNC(=O)c1cc(Cl)c(N)cc1OC [metoclopramide]	~400 µg/kg				
CNS(=O)(=O)Cc1ccc2[nH]cc(CCN(C)C)c2c1 [sumatriptan]		marked antimigraine activity in man	powerful agonist of the 5HT1D receptor	~100	weak agonist of the 5HT1A receptor
COc1cc(N)c(Cl)cc1C(=O)NC1CN2CCC1CC2 (stereo not shown) [zacopride]	~0.25 µg/kg				
